# According to US20260001914A1, “MACROCYCLIC PEPTIDES TARGETING KRAS” (Merck Sharp & Dohme LLC, priority 2022, published 2026):
# pEC50: −log10 of the molar value. *1 amine or outer side, *2 acyl side, *3 side chain or, on linkers, in order; H or OH if unused. Where a SMILES comes first, the peptide text is derived from it. Bridges are numbered along the chain shown (N, C = ends). [ ]: non-standard residue; d: D form. cBu(1-CO,cis-3-CH2NH) = O=C([C@H]1C[C@@H](CN[*:1])C1)[*:2]; NMeNva(5-imidazol-1-yl) = CN[C@@H](CCCn1ccnc1)C(=O)O; Lys(N3) = [N-]=[N+]=NCCCC[C@H](N)C(=O)O; Phe(2-F) = N[C@@H](Cc1ccccc1F)C(=O)O; NMe3Pal = CN[C@@H](Cc1cccnc1)C(=O)O; X1 = O=C(C12CC(CN[*:1])(C1)C2)[*:2]; NMeF = CN[C@@H](Cc1ccccc1)C(=O)O; 3Pal = N[C@@H](Cc1cccnc1)C(=O)O; Ahp(2) = CCCCC[C@H](N)C(=O)O; Cba = N[C@@H](CC1CCC1)C(=O)O; αMeC = C[C@](N)(CS)C(=O)O; NMeA = CN[C@@H](C)C(=O)O; Nle = CCCC[C@H](N)C(=O)O
# Target: KRAS-G12D protein (Homo sapiens, UniProt P01116, G12D)
# Sequence (P01116 1-188 isoform P01116-2 G12D): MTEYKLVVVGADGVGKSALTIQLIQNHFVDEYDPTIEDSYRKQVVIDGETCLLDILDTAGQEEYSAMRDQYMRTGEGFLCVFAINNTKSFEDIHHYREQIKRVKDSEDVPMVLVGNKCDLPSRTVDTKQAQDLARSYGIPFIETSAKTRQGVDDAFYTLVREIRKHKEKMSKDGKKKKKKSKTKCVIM
# Experiment: SOS-mediated nucleotide exchange assay (BODIPY-GDP / Tb-streptavidin TR-FRET)
# Assay type: biochemical
row,SMILES,pEC50
1,"CCCC[C@@H]1NC(=O)[C@H](Cc2cccnc2)NC(=O)[C@H](CCCNC(=N)N)NC(=O)[C@H](Cc2ccccc2)NC(=O)CSC[C@@](C)(C(=O)O)NC(=O)[C@H](Cc2cccnc2)N(C)C(=O)[C@H](CCCC)NC(=O)[C@H](Cc2ccccc2F)NC1=O [compound 148, cyclo(F-R-3Pal-Nle-Phe2F-Nle-NMe3Pal-aMeC-ClAc)] ({CH2CO}-FR[3Pal][Nle][Phe(2-F)][Nle][NMe3Pal][αMeC]-OH; thioether N-8)",6.43
2,"CCCC[C@@H]1NC(=O)[C@H](CCCCN)NC(=O)[C@H](CCCNC(=N)N)NC(=O)[C@H](C(c2ccccc2)c2ccccc2)NC(=O)CSC[C@H](C(N)=O)NC(=O)[C@H](Cc2ccccc2)N(C)C(=O)[C@H](CCCC)NC(=O)[C@H](Cc2ccc(O)cc2)NC1=O [compound 149, cyclo(Dip-R-K-Nle-Y-Nle-NMeF-dCl-ClAc)]",5.99
3,"CCCC[C@@H]1NC(=O)[C@H](Cc2cccnc2)NC(=O)[C@H](CCCn2ccnc2)N(C)C(=O)[C@H](Cc2ccccc2)N(C)C(=O)[C@H]2C[C@@H](CNC(=O)[C@H](Cc3cccnc3)N(C)C(=O)[C@H](CCCCN=[N+]=[N-])NC(=O)[C@H](Cc3ccccc3F)NC1=O)C2 [compound 157, cyclo(NMeF-NMeNvalmid-3Pal-Nle-Phe2F-LysN3-NMe3Pal-c3amCblc)] (cyclo([3Pal][Nle][Phe(2-F)][Lys(N3)][NMe3Pal][cBu(1-CO,cis-3-CH2NH)][NMeF][NMeNva(5-imidazol-1-yl)]))",5.11
4,"CCCCC[C@@H]1NC(=O)[C@H](Cc2ccc(OC)cc2)NC(=O)[C@H](CC2CCC2)NC(=O)[C@H](Cc2cccnc2)NC(=O)[C@H](C)N(C)C(=O)[C@H](Cc2ccccc2)NC(=O)CSC[C@@](C)(C(N)=O)NC(=O)[C@H](Cc2ccccc2)N(C)C1=O [compound 158, cyclo(F-NMeA-3Pal-cBuA-TyrOMe-Ahp-NMeF-aMeCl-ClAc)] ({CH2CO}-F[NMeA][3Pal][Cba]Y(Me)[Ahp(2)][NMeF][αMeC]-NH2; thioether N-8)",6.84
5,"CCCC[C@@H]1NC(=O)[C@H](Cc2cccnc2)NC(=O)[C@H](C)N(C)C(=O)[C@H](Cc2ccccc2)NC(=O)CSC[C@@](C)(C(N)=O)NC(=O)[C@H](Cc2ccccc2)N(C)C(=O)[C@H](CCCC)NC(=O)[C@H](Cc2ccccc2F)NC1=O [compound 159, cyclo(F-NMeA-3Pal-Nle-Phe2F-Nle-NMeF-aMeCl-ClAc)] ({CH2CO}-F[NMeA][3Pal][Nle][Phe(2-F)][Nle][NMeF][αMeC]-NH2; thioether N-8)",6.96
6,"CCCC[C@@H]1NC(=O)[C@H](Cc2cccnc2)NC(=O)[C@H](CCCNC(=N)N)NC(=O)[C@H](Cc2ccccc2)NC(=O)CSC[C@@](C)(C(N)=O)NC(=O)[C@H](Cc2ccccc2)N(C)C(=O)[C@H](CCCC)NC(=O)[C@H](Cc2ccccc2F)NC1=O [compound 160, cyclo(F-R-3Pal-Nle-Phe2F-Nle-NMeF-aMeCl-ClAc)] ({CH2CO}-FR[3Pal][Nle][Phe(2-F)][Nle][NMeF][αMeC]-NH2; thioether N-8)",7.89
7,"CCC[C@@H]1NC(=O)[C@H](Cc2ccc(O)cc2)NC(=O)[C@H](CC(C)C)NC(=O)[C@H](Cc2ccc(O)cc2)NC(=O)[C@H](CCCNC(=N)N)NC(=O)[C@H](Cc2ccccc2)NC(=O)CCCNC(=O)[C@H](Cc2ccccc2)N(C)C1=O [compound 161, cyclo(F-R-Y-L-Y-Nva-NMeF-C4NH2acid)]",5.55
8,"CCCC[C@@H]1NC(=O)[C@H](Cc2cccnc2)NC(=O)[C@H](C)N(C)C(=O)[C@H](Cc2ccccc2)NC(=O)C23CC(CNC(=O)[C@H](Cc4cccnc4)N(C)C(=O)[C@H](CCCC)NC(=O)[C@H](Cc4ccccc4F)NC1=O)(C2)C3 [compound 162, cyclo(F-NMeA-3Pal-Nle-Phe2F-Nle-NMe3Pal-amBCP)] (cyclo(F[NMeA][3Pal][Nle][Phe(2-F)][Nle][NMe3Pal][X1]))",6.51
